# System: OCI-LY10 cells
# Experiment: Cell proliferation assay (MTS) in OCI-LY10 cells
# Assay type: cell-based
# Settings: Homo sapiens, OCI-Ly10, 72 h, read-out: OCI-LY10 IC50 (nM)
# From the text: MTS testing kit was purchased from Promega (Madison, Wis., USA). The RPMI-1640, Fetal bovine serum and Penicillin-Streptomycin were purchased from BI (Biological Industries, Beit Haemek, Israel). Dimethyl sulfoxide (DMSO) was purchased from Sigma (St. Louis., Mo., USA). […] To investigate whether a compound is able to inhibit the activity of BTK in cells, a mechanism-based assay using OCI-LY10 cells was developed. In this assay, inhibition of BTK was detected by the inhibition of OCI-LY10 cells proliferation. Cells were plated into 96-well plates at a density of 10000 cells/well. Plates were incubated at 37° C., with 5% CO2 for 4 h. […] Plates were incubated at 37° C., with 5% CO2 for 72 h. 20 μl MTS was added into each well and the plates were incubated at 37° C., with 5% CO2 for exactly 2 h. The absorbance was measured by a microplate reader at 490 nm. IC50 was calculated using GraphPad Prism 5.0 software. Select compounds prepared as described above were assayed according to the biological procedures described herein.
row,Compound,IC50
1,"COc1ccc(F)cc1C(=O)NCc1ccc(-c2nc(C3CCCC3)n3ncnc(N)c23)cc1 [Example 12, N-(4-(4-amino-7-cyclopentylimidazo [5,1-f][1,2,4]triazin-5-yl)benzyl)-5-fluoro-2-methoxybenzamide]",9 nM

# Same assay, conditions: Homo sapiens; inhibition of OCI-LY10 cells proliferation, 72 h incubation, MTS, absorbance at 490 nm; read-out: OCI-LY10 IC50
row,IC50,Compound
1,1 nM,"COc1ccc(F)cc1C(=O)NCc1ccc(-c2nn([C@@H](CF)C3CC3)c3c(=O)[nH]nc(N)c23)cc1 [Example 88, (R)-N-(4-(4-amino-1-(1-cyclopropyl-2-fluoroethyl)-7-oxo-6,7-dihydro-1H-pyrazolo[3,4-d]pyridazin-3-yl)benzyl)-5-fluoro-2-methoxybenzamide]"
2,14 nM,"COc1ccc(F)cc1C(=O)NCc1ccc(-c2cn([C@@H]3CCN(S(=O)(=O)C(C)C)C3)c3c(=O)[nH]nc(N)c23)cc1 [Example 111, (R)-N-(4-(4-amino-1-(1-(isopropylsulfonyl)pyrrolidin-3-yl)-7-oxo-6,7-dihydro-1H-pyrrolo[2,3-d]pyridazin-3-yl)benzyl)-5-fluoro-2-methoxybenzamide]"
3,22 nM,"CC[C@@H](C)c1nn(-c2ccc(CNC(=O)c3cc(F)ccc3OC)cc2)c2c(N)n[nH]c(=O)c12 [Example 92b, (R)-N-(4-(7-amino-3-(sec-butyl)-4-oxo-4,5-dihydro-1H-pyrazolo[3,4-d]pyridazin-1-yl)benzyl)-5-fluoro-2-methoxybenzamide]"
4,1 nM,"COc1ccc(F)cc1C(=O)NCc1ccc(-n2nc(C(C)(C)C)c3c(=O)[nH]nc(N)c32)cc1 [Example 94, N-(4-(7-amino-3-(tert-butyl)-4-oxo-4,5-dihydro-1H-pyrazolo[3,4-d]pyridazin-1-yl)benzyl)-5-fluoro-2-methoxybenzamide]"
5,1 nM,"COc1ccc(F)cc1C(=O)NCc1ccc(-n2nc(C(C)C3CC3)c3c(=O)[nH]nc(N)c32)cc1 (stereo not shown) [Example 96, N-(4-(7-amino-3-(1-cyclopropylethyl)-4-oxo-4,5-dihydro-1H-pyrazolo[3,4-d]pyridazin-1-yl)benzyl)-5-fluoro-2-methoxybenzamide]"
6,15 nM,"COc1ccc(F)cc1C(=O)NCc1ccc(-n2nc(C3CCCC3(F)F)c3c(=O)[nH]nc(N)c32)cc1 (stereo not shown) [Example 90, N-(4-(7-amino-3-(2,2-difluorocyclopentyl)-4-oxo-4,5-dihydro-1H-pyrazolo [3,4-d]pyridazin-1-yl)benzyl)-5-fluoro-2-methoxybenzamide]"
7,76 nM,"COc1ccc(F)cc1C(=O)NCc1ccc(-n2c(=O)n(C3CCC3)c3c(=O)[nH]nc(N)c32)cc1 [Example 102, N-(4-(7-amino-3-cyclobutyl-2,4-dioxo-2,3,4,5-tetrahydro-1H-imidazo[4,5-d]pyridazin-1-yl)benzyl)-5-fluoro-2-methoxybenzamide]"
8,92 nM,"COc1ccc(F)cc1C(=O)NCc1ccc(-n2nc(C3(F)CC3)c3c(=O)[nH]nc(N)c32)cc1 [Example 98, N-(4-(7-amino-3-(1-fluorocyclopropyl)-4-oxo-4,5-dihydro-1H-pyrazolo[3,4-d]pyridazin-1-yl)benzyl)-5-fluoro-2-methoxybenzamide]"
9,11 nM,"COc1ccc(F)cc1C(=O)NCc1ccc(-c2cn([C@@H]3CCN(C(=O)N4CCC4)C3)c3c(=O)[nH]nc(N)c23)cc1 [Example 107, (R)-N-(4-(4-amino-1-(1-(azetidine-1-carbonyl)pyrrolidin-3-yl)-7-oxo-6,7-dihydro-1H-pyrrolo[2,3-d]pyridazin-3-yl)benzyl)-5-fluoro-2-methoxybenzamide]"

# The remaining lines, values behind:
row,Compound,IC50
1,"COc1ccc(F)cc1C(=O)NCc1ccc(-c2cn(C3CCCC3(C)O)c3c(=O)[nH]nc(N)c23)cc1 (stereo not shown) [Example 38, N-(4-(4-amino-1-(2-hydroxy-2-methylcyclopentyl)-7-oxo-6,7-dihydro-1H-pyrrolo[2,3-d]pyridazin-3-yl)benzyl)-5-fluoro-2-methoxybenzamide]",35 nM
2,"COc1ccc(F)cc1C(=O)NCc1ccc(-c2cn(C3CCCC3)c3c(=O)[nH]nc(N)c23)cc1F [Example 30, N-(4-(4-amino-1-cyclopentyl-7-oxo-6,7-dihydro-1H-pyrrolo[2,3-d]pyridazin-3-yl)-2-fluorobenzyl)-5-fluoro-2-methoxybenzamide]",1 nM
3,"COc1ccc(F)cc1C(=O)NCc1ccc(-c2nn(C(CO)C(F)(F)F)c3c(=O)[nH]nc(N)c23)cc1 (stereo not shown) [Example 78, N-(4-(4-amino-7-oxo-1-(1,1,1-trifluoro-3-hydroxypropan-2-yl)-6,7-dihydro-1H-pyrazolo[3,4-d]pyridazin-3-yl)benzyl)-5-fluoro-2-methoxybenzamide]",26 nM
4,"COc1cc(F)c(F)cc1C(=O)NCc1ccc(-c2cn(C3CCCC3)c3c(=O)[nH]nc(N)c23)cc1 [Example 79, N-(4-(4-amino-1-cyclopentyl-7-oxo-6,7-dihydro-1H-pyrrolo[2,3-d]pyridazin-3-yl)benzyl)-4,5-difluoro-2-methoxybenzamide]",50 nM
5,"COc1ccc(F)cc1C(=O)NCc1ccc(-c2cn(C3CCCC3)c3c(=O)[nH]nc(N)c23)c(F)c1 [Example 31, N-(4-(4-amino-1-cyclopentyl-7-oxo-6,7-dihydro-1H-pyrrolo[2,3-d]pyridazin-3-yl)-3-fluorobenzyl)-5-fluoro-2-methoxybenzamide]",1 nM
6,"COc1ccc(F)cc1C(=O)NCc1ccc(-c2nn([C@@H](C)C3CC3)c3c(=O)[nH]nc(N)c23)cc1 [Example 77b, (S)-N-(4-(4-amino-1-(1-cyclopropylethyl)-7-oxo-6,7-dihydro-1H-pyrazolo[3,4-d]pyridazin-3-yl)benzyl)-5-fluoro-2-methoxybenzamide]",1 nM
7,"COc1ccc(F)cc1C(=O)NCc1ccc(-c2nn([C@H](C)C3CC3)c3c(=O)[nH]nc(N)c23)cc1 [Example 77a, (R)-N-(4-(4-amino-1-(1-cyclopropylethyl)-7-oxo-6,7-dihydro-1H-pyrazolo[3,4-d]pyridazin-3-yl)benzyl)-5-fluoro-2-methoxybenzamide]",1 nM
8,"COc1ccc(F)cc1C(=O)NCc1ccc(-c2nn([C@H](C)C(F)(F)F)c3c(=O)[nH]nc(N)c23)cc1 [Example 40b, (R)-N-(4-(4-amino-7-oxo-1-(1,1,1-trifluoropropan-2-yl)-6,7-dihydro-1H-pyrazolo[3,4-d]pyridazin-3-yl)benzyl)-5-fluoro-2-methoxybenzamide]",83 nM
9,"COc1ccc(F)cc1C(=O)NCc1ccc(-c2nn(C(C)C(F)F)c3c(=O)[nH]nc(N)c23)cc1 (stereo not shown) [Example 76, N-(4-(4-amino-1-(1,1-difluoropropan-2-yl)-7-oxo-6,7-dihydro-1H-pyrazolo [3,4-d]pyridazin-3-yl)benzyl)-5-fluoro-2-methoxybenzamide]",1 nM
10,"COc1ccc(F)cc1C(=O)NCc1ccc(-c2nn(C(C)C(C)(C)C)c3c(=O)[nH]nc(N)c23)cc1 (stereo not shown) [Example 70, N-(4-(4-amino-1-(3,3-dimethylbutan-2-yl)-7-oxo-6,7-dihydro-1H-pyrazolo[3,4-d]pyridazin-3-yl)benzyl)-5-fluoro-2-methoxybenzamide]",1 nM
11,"COc1ccc(F)cc1C(=O)NCc1ccc(-n2c(=O)n(C3CCCC3)c3c(=O)[nH]nc(N)c32)cc1 [Example 60, N-(4-(7-amino-3-cyclopentyl-2,4-dioxo-2,3,4,5-tetrahydro-1H-imidazo[4,5-d]pyridazin-1-yl)benzyl)-5-fluoro-2-methoxybenzamide]",30 nM
12,"COc1ccc(F)cc1C(=O)NCc1ccc(-c2nn(C3(CF)CC3)c3c(=O)[nH]nc(N)c23)cc1 [Example 82, N-(4-(4-amino-1-(1-(fluoromethyl)cyclopropyl)-7-oxo-6,7-dihydro-1H-pyrazolo[3,4-d]pyridazin-3-yl)benzyl)-5-fluoro-2-methoxybenzamide]",3 nM
13,"COc1ccc(F)cc1C(=O)NCc1ccc(-c2nn(C3(C(F)F)CC3)c3c(=O)[nH]nc(N)c23)cc1 [Example 84, N-(4-(4-amino-1-(1-(difluoromethyl)cyclopropyl)-7-oxo-6,7-dihydro-1H-pyrazolo[3,4-d]pyridazin-3-yl)benzyl)-5-fluoro-2-methoxybenzamide]",4 nM
14,"COc1ccc(F)cc1C(=O)NCc1ccc(-c2cn(C3CC3)c3c(=O)[nH]nc(N)c23)cc1 [Example 34, N-(4-(4-amino-1-cyclopropyl-7-oxo-6,7-dihydro-1H-pyrrolo[2,3-d]pyridazin-3-yl)benzyl)-5-fluoro-2-methoxybenzamide]",4 nM
15,"COc1ncc(F)cc1C(=O)NCc1ccc(-c2nn(C3CCCC3)c3c(=O)[nH]nc(N)c23)cc1 [Example 61, N-(4-(4-amino-1-cyclopentyl-7-oxo-6,7-dihydro-1H-pyrazolo[3,4-d]pyridazin-3-yl)benzyl)-5-fluoro-2-methoxynicotinamide]",15 nM
16,"COc1ccc(F)cc1C(=O)NCc1ccc(-n2cc(C3CCCC3)c3ncnc(N)c32)cc1 [Example 18, N-(4-(4-amino-7-cyclopentyl-5H-pyrrolo [3,2-d]pyrimidin-5-yl)benzyl)-5-flu oro-2-methoxybenzamide]",1 nM
17,"COc1ccc(F)cc1C(=O)NCc1ccc(-c2cn(C3CCC3)c3c(=O)[nH]nc(N)c23)cc1 [Example 36, N-(4-(4-amino-1-cyclobutyl-7-oxo-6,7-dihydro-1H-pyrrolo[2,3-d]pyridazin-3-yl)benzyl)-5-fluoro-2-methoxybenzamide]",1 nM
18,"COc1ccc(F)cc1C(=O)NCc1ccc(-c2cn(C3CC(F)(F)C3)c3c(=O)[nH]nc(N)c23)cc1F [Example 56, N-(4-(4-amino-1-(3,3-difluorocyclobutyl)-7-oxo-6,7-dihydro-1H-pyrrolo[2,3-d]pyridazin-3-yl)-2-fluorobenzyl)-5-fluoro-2-methoxybenzamide]",3 nM

# Reference: patent US20230145305A1, “COMPOUNDS USEFUL AS KINASE INHIBITORS” (Fochon Biosciences, Ltd., priority 2020, published 2023)
